Assay results published in patent publication US20250186411A1, “Methods of Treating Disorders Associated with Overactivation of IKKB” (The United States Government as represented by the …, priority 2023, published 2025).
Read-outs that look alike come from different tables or passages of the source.

How the values were obtained:
Format in all cases: cell-based
[1] = test system: KLF15 promoter (pEZX-FR03hKLF15p human podocytes); test: KLF15 reporter high-throughput screening assay in human podocytes (firefly/renilla luciferase); settings: for fold induction at 1 µM: Homo sapiens, read-out: Fold Change (KLF15 reporter activity)
Experimental: Briefly, these podocytes proliferate under permissive conditions (gamma interferon at 33° C.), but differentiate under nonpermissive conditions (37° C.).
The amplified fragment contains MluI and PmeI RE sites and was subcloned into the MluI and PmeI cloning site of the pEZX-FR03 Firefly luciferase (FLuc) and Renilla luciferase (Rluc) reporter cloning vector (GeneCopoeia) to generate pEZX-FR03hKLF15p. Following verification of the sequence by restriction and μsequencing, the pEZX-FR03hKLF15p construct (which contains a puromycin resistance cassette) was transfected into human podocytes followed by selection in puromycin-containing media for 2 weeks. Surviving podocytes clones were pooled together for further analysis.
The library of compounds from the National Cancer Institute (Approved Oncology Drugs Set VI; Natural Products Set III; Diversity Set V; and Mechanistic Diversity Set II) were added to a final concentration of 1 μM in 0.5% DMSO in the low FBS cell culture media (0.2% FBS) using liquid handling system PipetMax (Gilson). After 24 hours incubation at 37° C., the Luc-Pair™ Duo-Luciferase HT Assay Kit (GeneCopoeia LF015) were used and firefly and renilla luciferase activity was determined using the SpectraMax M3 (Molecular Devices). Positive controls were all-trans retinoic acid (atRA) (1 μM) and dexamethasone (DEX) (1 μM). Negative controls were DMSO and cell-free media.
(§1) To identify small molecule inducers of KLF15 expression in human podocytes, human podocytes were generated with a dual reporter, firefly luciferase directed at the KLF15 promoter region and renilla luciferase (pEZX-FR03hKLF15p). […] The positive controls were inducers of KLF15 expression, dexamethasone (DEX) and all-trans retinoic acid (atRA), and […] and cell-free wells served as negative controls.

[2] = test system: KLF15 promoter (pEZX-FR03hKLF15p human podocytes); test: Half maximal effective concentration (EC50) of KLF15 reporter activity
Experimental: The EC50 was determined using nonlinear regression and then choosing the equation of Sigmoidal function, 4PL method (X is log(concentration); or the equation of log(agonist) vs. response—variable slope).
as §1

[3] = test system: human podocytes; test: Cell viability of podocytes (renilla activity, MTS assay); settings: higher doses (10^4 nM), relative to DMSO
Experimental: Differentiated pEZX-FR03hKLF5p human podocytes were treated with 25 μg/ml lipopolysaccharide (LPS) or vehicle and 1 μM KLF15 agonist or vehicle control for 24 hours. Firefly and renilla luciferase assay were measured initially to determine relative KLF15 reporter activity.
Differentiated pEZX-FR03hKLF5p human podocytes were treated with 0.4 μg/ml adriamycin (ADR) or vehicle and 1 μM KLF15 agonist or vehicle control for 24 hours. Firefly and renilla luciferase assay were measured initially to determine relative KLF15 reporter activity.
To assess cell viability, the CellTiter 96® AQueous One Solution Reagent (Promega) was added to the culture media and plates were incubated for 2 hours at 37° C. with 5% CO2.

[4] = NCI library hits, 1 μM, 24 hours
[5] = Homo sapiens, KLF15 reporter activity, dose-response, read-out: EC50
[6] = KLF15 reporter activity, dose-response, read-out: EC50

Compound	fold induction at 1 µM [1, 4]	EC50 [2, 5] [nM]	also measured
Cc1nc(-n2nc(-c3ccccc3)cc2-c2ccccc2)sc1C(=O)C=Cc1ccc(Cl)c(Cl)c1 [C-27, 3-(3,4-dichlorophenyl)-1-(2-(3,5-diphenyl-1H-pyrazol-1-yl)-4-methylthiazol-5-yl)prop-2-en-1-one]	2.89		
CN(C)c1ccc(N=Nc2cccc3ccoc23)cc1 [C-28, 7-(p-N,N-Dimethylaminophenylazo)benzofuran]	2.87	~6310	
O=C1Nc2ccccc2C1=NNC(=O)c1ccccc1O [C-34, 2-hydroxy-N′-(2-oxo-1,2-dihydro-3H-indol-3-ylidene)benzohydrazide]	2.69	122	
Nc1ccc2c(c1)CN1C(=O)c3ccccc3C1=N2 [C-2, Batracyclin]	3.07	14.9	
CCOC(=O)c1sc2[n+](c1C)C(=O)/C(=C/c1ccc([N+](=O)[O-])cc1)S2.[Cl-] [C-32, ethyl (2Z)-5-methyl-2-[(4-nitrophenyl)methylidene]-3-oxo-[1,3]thiazolo[2,3-b][1,3]thiazol-4-ium-6-carboxylate;chloride]			Fold Change (KLF15 reporter activity) [1, 4]: 2.8360 fold
Clc1ccccc1-c1nc(-c2ccncc2)no1 [C-10, Pifexole]	2.72	332	
2-[2-[(2E)-2-[(5Z)-5-(anilinomethylene)-3-ethyl-4-oxo-thiazolidin-2-ylidene[hydrazino]thiazol-5-yl]-N-(o-tolyl)acetamide [C-26]			EC50 [2, 6]: 484 nM; Fold Change (KLF15 reporter activity) [1, 4]: 3.0168 fold
Cc1ccc(NC(=O)c2cccc([N+](=O)[O-])c2O)c([N+](=O)[O-])c1 [C-21, 2-hydroxy-N-(4-methyl-2-nitrophenyl)-3-nitrobenzamide]			EC50 ([2]; Homo sapiens): 61.4 nM; fold induction at 1 µM ([1]; 24 h): 3.11
CC1=C(O)C(=O)C=C2C1=CC=C1[C@@]2(C)CC[C@@]2(C)[C@@H]3C[C@](C)(C(=O)O)CC[C@]3(C)CC[C@]12C [C-19, Celastrol]			EC50 ([2]; Homo sapiens): 11.2 nM; fold induction at 1 µM ([1]; 24 h): 3.28
Tin(IV), chlorotriphenyl[1-(4-ethoxyphenyl)-3-cyanoureato]-, hydrogen, trimethylamine [C-17]			Fold Change (KLF15 reporter activity) [1, 4]: 4.6159 fold
CN(C)c1cccc(C=C(C#N)c2ccccc2)c1 [C-4, 2-Propenenitrile, 3-[3-(dimethylamino)phenyl]-2-phenyl-]	2.57	23.7	
C[C@@H]1C[C@H]2[C@@H]3CCC4=CC(=O)C=C[C@]4(C)[C@@]3(F)[C@@H](O)C[C@]2(C)[C@@]1(O)C(=O)CO [DEX, dexamethasone, reference compound]			renilla activity in dose-response [3]: trend towards lower renilla activity
COc1cccc(C=Cc2nccc3ccccc23)c1OC [C-44]			EC50 [2, 6]: ~1840 nM; Fold Change (KLF15 reporter activity) [1, 4]: 2.5631 fold
Cc1cc(N(C)C)ccc1/N=N/c1ccc2ncccc2c1 [C-25, N,N,3-trimethyl-4-[(E)-6-quinolylazo]aniline]	3.02	15.8	
FC(F)(F)c1cccc(-c2nc3nc(Cl)c(Cl)nc3[nH]2)c1 [C-16, 5,6-dichloro-2-[3-(trifluoromethyl)phenyl]-1H-imidazo[4,5-b]pyrazine]	2.82	52.1	
COc1ccc2c(n1)Sc1nc3ccccc3nc1N2 [C-35, 7-Methoxy-1,4,6-benzotriazaphenothiazine]			EC50 [2, 6]: 319 nM; Fold Change (KLF15 reporter activity) [1, 4]: 2.6597 fold
NC(=O)c1ccccc1OCC(=O)Nc1ccc(Cl)c(Cl)c1 [C-12, 2-[2-(3,4-Dichloroanilino)-2-oxoethoxy]benzamide]	3.13	37.3	
O=C(Nc1ccc2ccccc2c1)c1cccc(F)c1 [C-8, 3-fluoro-N-(2-naphthyl)benzamide]	2.79	70.5	
Cc1cccnc1NC(=S)Nc1ncccc1C [C-6, 1,3-bis(3-methylpyridin-2-yl)thiourea]	2.71	770	
Cc1cccn2c(=O)[nH]nc12 [C-29]			EC50 [2, 6]: 550 nM; Fold Change (KLF15 reporter activity) [1, 4]: 2.8700 fold
c1ccc(-c2nnc(-c3ccccn3)s2)nc1 [C-30, 2,5-dipyridin-2-yl-1,3,4-thiadiazole]	2.86	335	

Compound	fold induction at 1 µM [1, 4]	EC50 [2, 5] [nM]	also measured
CN(C)c1ccc(N=Nc2ccccn2)cc1 [C-37, 4-(2-pyridylazo)-n,n-dimethylaniline]			EC50 [2, 6]: 27 nM; Fold Change (KLF15 reporter activity) [1, 4]: 2.6148 fold
CN(C)c1ccc(/C=C2\C=Cc3ccccc32)cc1 [C-3, [(4-Dimethylamino)benzylidene]indene]			EC50 [2, 6]: 17.7 nM; Fold Change (KLF15 reporter activity) [1, 4]: 2.6455 fold
O=C(Nc1ccc(Nc2ccccc2)cc1)Nc1ccccc1Cl [C-14, 1-(4-Anilinophenyl)-3-(2-chlorophenyl)urea]	3.03	42.1	
Nc1ccccc1C(=O)Nc1ccc(Cl)cc1Cl [C-11, 2-amino-N-(2,4-dichlorophenyl)benzamide]	2.64	706	
Oc1ccc(-c2nc3ccccc3s2)cc1 [C-1, Phenol,4-(2-benzothiazolyl)]			EC50 [2, 6]: 99.6 nM; Fold Change (KLF15 reporter activity) [1, 4]: 3.0083 fold
COc1ccc2[nH]c(-c3ccccc3)cc2c1 [C-5, 5-methoxy-2-phenyl-1H-indole]	3.14	55.9	
O=C(Nc1ccc(Cl)c(Cl)c1)Nc1ccccc1O [C-13, N-(3,4-dichlorophenyl)-N′-(2-hydroxyphenyl)urea]	2.64	86.1	
Cc1ccc(NNC2=C3N=NN=C3C=CC2=O)cc1 [C-43, 4-[2-(4-methylphenyl)hydrazinyl]benzotriazol-5-one]	2.57	866	
O=C1C=C/C(=C2/Nc3ccccc3S2)C(O)=C1 [C-33, (4E)-4-(3H-1,3-benzothiazol-2-ylidene)-3-hydroxycyclohexa-2,5-dien-1-one]	2.75	490	
O=C1C(c2cnc3ccccc3n2)=C(O)c2ccccc21 [C-31, 1-Indenone, 3-hydroxy-2-(2-quinoxalinyl)-]	2.85	45.9	
O=C(Nc1cccc([N+](=O)[O-])c1)c1ccc2ccccc2c1O [C-38, 2-<3-Nitro-phenylcarbamoyl>-naphth-1-ol]			EC50 [2, 6]: 145 nM; Fold Change (KLF15 reporter activity) [1, 4]: 2.6069 fold
O=C(NC(=S)Nc1ccccn1)c1ccccc1 [C-36, N-(pyridin-2-ylcarbamothioyl)benzamide]	2.64	292	
CC(=NNc1nc2ccccc2s1)c1ccncn1 [C-18, 2-(2-(1-(pyrimidin-4-yl)ethylidene)hydrazinyl)benzo[d]thiazole]	3.29	156	
5-Methylbenzo[c]phenanthridin-5-ium-2,3,8,9-tetrol; pyridine; chloride; hydrochloride [C-23]			EC50 [2, 6]: 296 nM; Fold Change (KLF15 reporter activity) [1, 4]: 3.0541 fold
Cc1ccc(N/N=C2\C(=N)N(c3ccccc3)N=C2N)cc1 [C-24, (4Z)-5-imino-4-[(4-methylphenyl)hydrazinylidene]-1-phenylpyrazol-3-amine]	3.03	2670	
COc1ccc(C(C#N)=Cc2ccccn2)cc1 [C-40, 2-(4-methoxyphenyl)-3-pyridin-2-ylprop-2-enenitrile]	2.6	546	
COc1ccc(N=Nc2ccc(N)nc2N)cc1 [C-20, 3-[(4-Methoxyphenyl)azo]-2,6-pyridinediamine]	3.14	84.4	
Cc1csc(N=Nc2ccc(N(C)C)cc2)[n+]1[O-] [C-39, N,N-dimethyl-4-[(4-methyl-3-oxido-1,3-thiazol-3-ium-2-yl)diazenyl]aniline]	2.6	~6890	
COc1cccc2nc3cc(C)c(C)cc3nc12 [C-41, 1-Methoxy-7,8-dimethylphenazine]	2.59	215	
O=C1C(=Cc2ccc([N+](=O)[O-])cc2)Sc2scc(-c3cccc([N+](=O)[O-])c3)[n+]21 [C-42, Thiazolo[2,3-b]thiazolium, 2,3-dihydro-2-[(4-nitrophenyl)methylene]-5-(3-nitrophenyl)-3-oxo-, chloride]			fold induction at 1 µM ([1]; 24 h): 2.58
